Data taken from patent US11320350B2, “Method for agglutinating erythrocytes, method for separating erythrocytes, and hemagglutination reagent” (DENKA SEIKEN CO., LTD., priority 2016, dated 2022).

System: erythrocytes in a whole blood sample
Test: hemagglutination evaluation test: whole blood sample added to hemagglutination reagent, rate of agglutination of erythrocytes visually evaluated
Type: cell-based
Parameters: key to Rate of agglutination: +++: Erythrocytes were instantaneously agglutinated into a sufficient size and the agglutinated erythrocytes were precipitated.; ++: Erythrocytes started to agglutinate after leaving to stand for a few seconds, and agglutinated erythrocytes were gradually precipitated.; +: Erythrocytes were agglutinated, but the agglutinates were very small and the agglutination was incomplete.; ±: Only very few erythrocytes were agglutinated.; −: Erythrocytes were hemolyzed without being agglutinated
Conditions: citric acid 100 mM in physiologic saline, pH3.0
Experimental: To 71 mL of distilled water, 10 mL of 10 w/v % sodium taurodeoxycholate hydrate (TDOC), 10 mL of 1 M citric acid, and 9 mL of 10 w/v % sodium chloride were added to prepare a solution containing 100 mM citric acid, 1% TDOC, and 0.9% sodium chloride as final concentrations (hemagglutination reagent). A solution was also prepared in the similar manner except that TDOC and/or sodium chloride were not added (hemagglutination reagent), and effects of the presence and absence of the cholic acid-based surfactant and the salt and the pH range on agglutination of erythrocytes were compared.
(§1) After adding 60 μL of a whole blood sample to 400 μL of the hemagglutination reagent, the rate of agglutination of erythrocytes was visually evaluated. The rate of agglutination was evaluated as +++, ++, +, or ± in order of rapidity based on the criteria described below. Hemolysis without agglutination was evaluated as −.
The pH of the hemagglutination reagent was measured using a desktop pH meter (HORIBA) (similarly in the following Examples and Comparative Examples).
Various cholic acid-based surfactants (1% by weight) and citric acid (100 mM) were added to a physiologic saline to prepare hemagglutination reagents (pH3.0) and their abilities to agglutinate erythrocytes were compared.
as §1, with “was” for “was visually”, “−. The following criteria were the same as those in Examples 1 to 4 and Comparative Examples 1-1 to 4-2.” for “−.”
Sodium taurodeoxycholate hydrate (TDOC) and citric acid (100 mM) were added to a physiologic saline to prepare hemagglutination reagents (pH3.0), and their abilities to agglutinate erythrocytes were compared in the concentration range of TDOC as shown in the table below.
as §1, with “was” for “was visually”, “criteria” for “criteria described”, “−. The following criteria were the same as those in Examples 1 to 7 and Comparative Examples 1-1 to 4-2.” for “−.”

Q: Which results are given for `C[C@H](CCC(=O)NCCS(=O)(=O)[O-])[C@H]1CC[C@H]2[C@@H]3CC[C@@H]4C[C@H](O)CC[C@]4(C)[C@H]3C[C@H](O)[C@]12C.O.[Na+]` [TDOC, sodium taurodeoxycholate hydrate]?
A: Rate of agglutination (Concentration of TDOC 0.1 wt %): +++; Rate of agglutination (Concentration of TDOC 0.5 wt %): +++; Rate of agglutination (Concentration of TDOC 1.0 wt %): +++; Rate of agglutination (Concentration of TDOC 6.0 wt %): +++; effect on hemagglutination (compared among cholic acid-based surfactants) (surfactant 1% by weight): most significant
